# According to patent publication US11452727B2, “Combination therapy for treating cancer” (Epizyme, Inc., priority 2017, dated 2022):
# Tests used:
# Experiment in all cases: In vitro combination study with tazemetostat, cell proliferation (Cell Titer Glo)
# A427 = settings: A427; 7 days tazemetostat pre-treatment, 6 days co-treatment with second agent
# A549 = settings: 7 days tazemetostat pre-treatment, 6 days co-treatment with second agent
# Method: (§1) Initial proliferation studies were performed to determine the IC50 of tazemetostat in each cell line. For the screen, tazemetostat was used at concentrations bracketed around the IC50 value. If 50% inhibitory concentration was not reached then tazemetostat was tested starting at 10 μM.
# (§2) In order to study the effect of dual combination of tazemetostat and a second agent on cell proliferation, cells in log-linear phase growth rate were pre-treated with various concentrations of tazemetostat or DMSO for 7 days in flasks, plated in 384-well plates in the absence of compounds and co-treated on day 8 with tazemetostat or DMSO and the second agent serially diluted for additional 6 days (as depicted in FIG. 1). On day 15, plates were developed for endpoint analysis using Cell Titer Glo to measure ATP content, which was used as an indicator of cell viability. DMSO concentration was kept constant throughout the assay at 0.15% v/v.
# NCI-H1299 = settings: 7 days tazemetostat pre-treatment, 6 days co-treatment with second agent
# NCI-H1573 = settings: 7 days tazemetostat pre-treatment, 6 days co-treatment with second agent
# Method: as §1, §2
# (§3) NCI-H1573 was cultured in DMEM: F12 Medium containing the following components: 0.02 mg/ml insulin, 0.01 mg/ml transferrin, 25 nM sodium selenite, 50 nM Hydrocortisone, 1 ng/ml Epidermal Growth Factor, 0.01 mM ethanolamine, 0.01 mM phosphorylethanolamine, 100 pM triiodothyronine, 0.5% (w/v) bovine serum albumin, 0.5 mM sodium pyruvate, 4.5 mM L-glutamine and 1% v/v Pen/Strep.
# NCI-H1703 = settings: 7 days tazemetostat pre-treatment, 6 days co-treatment with second agent
# NCI-H1793 = settings: 7 days tazemetostat pre-treatment, 6 days co-treatment with second agent
# Method: as §1, §2, §3
# NCI-H1993 = settings: 7 days tazemetostat pre-treatment, 6 days co-treatment with second agent
# NCI-H2030 = settings: 7 days tazemetostat pre-treatment, 6 days co-treatment with second agent
# Method: as §1, §2
# NCI-H2110 = settings: 7 days tazemetostat pre-treatment, 6 days co-treatment with second agent
# Method: as §1, §2
# NCI-H2122 = settings: 7 days tazemetostat pre-treatment, 6 days co-treatment with second agent
# Method: as §1, §2
# (§4) All cell lines were obtained from American Type Culture Collection (ATCC; Rockville, Md.). […] A427, Calu-3, Calu-6 cell lines were cultured in EMEM+10% Fetal bovine serum (FBS)+1% v/v Penicillin/Streptomycin (P/S).
# NCI-H23 = settings: 7 days tazemetostat pre-treatment, 6 days co-treatment with second agent
# Method: as §1, §2, §4
# NCI-H460 = settings: 7 days tazemetostat pre-treatment, 6 days co-treatment with second agent
# Method: as §1, §2, §4
# NCI-H522 = settings: 7 days tazemetostat pre-treatment, 6 days co-treatment with second agent
# Method: as §1, §2
# NCI-H661 = settings: 7 days tazemetostat pre-treatment, 6 days co-treatment with second agent
# NCI-H838 = settings: 7 days tazemetostat pre-treatment, 6 days co-treatment with second agent
# Method: as §1, §2, §3
# Calu-3 = settings: 7 days tazemetostat pre-treatment, 6 days co-treatment with second agent
# Method: as §1, §2, §3
# Calu-6 = settings: 7 days tazemetostat pre-treatment, 6 days co-treatment with second agent
# HCC827 = settings: 7 days tazemetostat pre-treatment, 6 days co-treatment with second agent
# Method: as §1, §2, §3
SMILES,combinatorial effect with tazemetostat (Loewe volume class) (A427),combinatorial effect with tazemetostat (Loewe volume class) (A549),combinatorial effect with tazemetostat (Loewe volume class) (NCI-H1299),combinatorial effect with tazemetostat (Loewe volume class) (NCI-H1573),combinatorial effect with tazemetostat (Loewe volume class) (NCI-H1703),combinatorial effect with tazemetostat (Loewe volume class) (NCI-H1793),combinatorial effect with tazemetostat (Loewe volume class) (NCI-H1993),combinatorial effect with tazemetostat (Loewe volume class) (NCI-H2030),combinatorial effect with tazemetostat (Loewe volume class) (NCI-H2110),combinatorial effect with tazemetostat (Loewe volume class) (NCI-H2122),combinatorial effect with tazemetostat (Loewe volume class) (NCI-H23),combinatorial effect with tazemetostat (Loewe volume class) (NCI-H460),combinatorial effect with tazemetostat (Loewe volume class) (NCI-H522),combinatorial effect with tazemetostat (Loewe volume class) (NCI-H661),combinatorial effect with tazemetostat (Loewe volume class) (NCI-H838),combinatorial effect with tazemetostat (Loewe volume class) (Calu-3),combinatorial effect with tazemetostat (Loewe volume class) (Calu-6),combinatorial effect with tazemetostat (Loewe volume class) (HCC827)
"N.N.[Cl][Pt][Cl] [Cisplatin, cisplatin]",Syn. (Loewe volumes greater than 1 denoted “synergy”),Syn. (Loewe volumes greater than 1 denoted “synergy”),No eff.,Add. (A value between −1 and 1 denoted “additivity”),No eff.,No eff.,Syn. (Loewe volumes greater than 1 denoted “synergy”),Syn. (Loewe volumes greater than 1 denoted “synergy”),Add. (A value between −1 and 1 denoted “additivity”),Anta. (volumes <−1 denoted “antagonism”),Add. (A value between −1 and 1 denoted “additivity”),Add. (A value between −1 and 1 denoted “additivity”),Anta. (volumes <−1 denoted “antagonism”),Syn. (Loewe volumes greater than 1 denoted “synergy”),Add. (A value between −1 and 1 denoted “additivity”),Syn. (Loewe volumes greater than 1 denoted “synergy”),Add. (A value between −1 and 1 denoted “additivity”),Add. (A value between −1 and 1 denoted “additivity”)
"CC(=O)Nc1cccc(-n2c(=O)n(C3CC3)c(=O)c3c(Nc4ccc(I)cc4F)n(C)c(=O)c(C)c32)c1 [Trametinib, trametinib]",Syn. (Loewe volumes greater than 1 denoted “synergy”),Anta. (volumes <−1 denoted “antagonism”),Syn. (Loewe volumes greater than 1 denoted “synergy”),Syn. (Loewe volumes greater than 1 denoted “synergy”),Syn. (Loewe volumes greater than 1 denoted “synergy”),Syn. (Loewe volumes greater than 1 denoted “synergy”),Syn. (Loewe volumes greater than 1 denoted “synergy”),Syn. (Loewe volumes greater than 1 denoted “synergy”),Syn. (Loewe volumes greater than 1 denoted “synergy”),Anta. (volumes <−1 denoted “antagonism”),Add. (A value between −1 and 1 denoted “additivity”),Anta. (volumes <−1 denoted “antagonism”),Syn. (Loewe volumes greater than 1 denoted “synergy”),Add. (A value between −1 and 1 denoted “additivity”),Syn. (Loewe volumes greater than 1 denoted “synergy”),Syn. (Loewe volumes greater than 1 denoted “synergy”),Add. (A value between −1 and 1 denoted “additivity”),Syn. (Loewe volumes greater than 1 denoted “synergy”)
"CN(C)C(=O)c1cc2cnc(Nc3ccc(N4CCNCC4)cn3)nc2n1C1CCCC1 [Ribociclib, ribociclib]",Syn. (Loewe volumes greater than 1 denoted “synergy”),Anta. (volumes <−1 denoted “antagonism”),Anta. (volumes <−1 denoted “antagonism”),Syn. (Loewe volumes greater than 1 denoted “synergy”),Anta. (volumes <−1 denoted “antagonism”),Syn. (Loewe volumes greater than 1 denoted “synergy”),Syn. (Loewe volumes greater than 1 denoted “synergy”),Syn. (Loewe volumes greater than 1 denoted “synergy”),No eff.,Anta. (volumes <−1 denoted “antagonism”),No eff.,Add. (A value between −1 and 1 denoted “additivity”),No eff.,Syn. (Loewe volumes greater than 1 denoted “synergy”),Add. (A value between −1 and 1 denoted “additivity”),Syn. (Loewe volumes greater than 1 denoted “synergy”),No eff.,Add. (A value between −1 and 1 denoted “additivity”)
